Source: patent US7601856B2 (Wyeth, priority 2006, dated 2009)
Read-outs that look alike come from different tables or passages of the source.

Tested on: isolated rat bladder strips
Experiment: Inhibition of contractions of isolated rat bladder strips
Settings: for IC50: 0.5 h; for inhibition at 30 µM: read-out: % Inhibition of Contractility @ 30 μM
Procedure: The compounds of the examples were tested to determine their ability to inhibit contractions of isolated rat bladder strips. See Foster, C. […] Malmgren, A. et al. J.Urol.
Male Sprague-Dawley rats (150-200 g) were obtained from ACE animal suppliers. Animals were allowed free access to food and water.
Animals were euthanized by CO2 asphyxiation followed by a bilateral thoracotomy. […] The bladder was opened and then cut into strips 1-2 mm in width and 7-10 mm in length. The strips were subsequently suspended in a 10 ml tissue bath under an initial resting tension of 1.5 g. The strips were held in place by two surgical clips one of which was attached to a fixed hook while the other was attached to an isometric force transducer. […] The carbachol was then washed out and the tissue allowed to relax to its resting level of activity. Following a further 30 minute period of recovery an additional 15 mM KCl were introduced into the tissue bath. […] Following stabilization of this enhanced level of contractile activity, incremental increases in the concentration of test compound or vehicle were introduced into the tissue bath. Contractile activity was measured for each compound or vehicle concentration during the last minute of a 30 minute challenge.
Isometric force developed by the bladder strips was measured using a force transducer and recorded on a polygraph. Contractile activity was assessed by measuring either the average amplitude of the contractions (baseline to peak force) occurring during a one minute period or, preferably, by integrating the contractile activity with respect to time (one minute measuring period).
The percentage inhibition of contractile activity evoked by each concentration of a given test compounds was used to generate a concentration-response curve.

[1] = concentration eliciting 50% inhibition of pre-drug contractile activity, strips stimulated with additional 15 mM KCl, 30 minute challenge per concentration, read-out: IC50
[2] = maximum percentage inhibition of contractile activity, 30 μM, strips stimulated with additional 15 mM KCl

IC50 [1] [nM]	Structure (SMILES)	inhibition at 30 µM [2] [%]	further results
200 to 1000	CCCCCC(=O)Nc1ccc2oc3c(c2c1)CCCCCC3 [Example 71, N-(6,7,8,9,10,11-HEXAHYDROBENZO[B]CYCLOOCTA[D]FURAN-2-YL)HEXANAMIDE]	–	–
–	O=C(CN1CCN(c2ncccn2)CC1)Nc1ccc2oc3c(c2c1)CCCCC3 [Example 50, 2-(4-PYRIMIDIN-2-YLPIPERAZIN-1-YL)-N-7,8,9,10-TETRAHYDRO-6H-BENZO[B]CYCLOHEPTA[D]FURAN-2-YLACETAMIDE]	–	IC50: 3000 to 5000 nM
10000 to 15000	CCCC(=O)Nc1ccc2oc3c(c2c1)CCCC3 [Example 10, N-(6,7,8,9-TETRAHYDRO-DIBENZOFURAN-2-YL)-BUTYRAMIDE]	–	–
6000 to 8000	CC(C)(C)OC(=O)N1CCC[C@H]1C(=O)Nc1ccc2oc3c(c2c1)CCCCC3 [Example 54, TERT-BUTYL (2S)-2-[(7,8,9,10-TETRAHYDRO-6H-BENZO[B]CYCLOHEPTA[D]FURAN-2-YLAMINO)CARBONYL]PYRROLIDINE-1-CARBOXYLATE]	–	–
–	CC(C)(C)OC(=O)N[C@@H](Cc1ccccc1)C(=O)Nc1ccc2oc3c(c2c1)CCCCC3 [Example 53, TERT-BUTYL [(1S)-1-BENZYL-2-OXO-2-(7,8,9,10-TETRAHYDRO-6H-BENZO[B]CYCLOHEPTA[D]FURAN-2-YLAMINO)ETHYL]CARBAMATE]	15 to 25	–
–	C[C@H](NC(=O)[C@H](Cc1ccccc1)NC(=O)OCc1ccccc1)C(=O)Nc1ccc2oc3c(c2c1)CCCCC3 [Example 58, N-[(BENZYLOXY)CARBONYL]-L-PHENYLALANYL-N^1-7,8,9,10-TETRAHYDRO-6H-BENZO[B]CYCLOHEPTA[D]FURAN-2-YL-L-ALANINAMIDE]	30 to 40	–
–	O=C(CCC1CCCC1)Nc1ccc2oc3c(c2c1)CCCCCC3 [Example 70, 3-CYCLOPENTYL-N-(6,7,8,9,10,11-HEXAHYDROBENZO[B]CYCLOOCTA[D]FURAN-2-YL)PROPANAMIDE]	15 to 30	–
10000 to 15000	O=C(Nc1ccc2oc3c(c2c1)CCCCCC3)c1ccco1 [Example 74, N-(6,7,8,9,10,11-HEXAHYDROBENZO[B]CYCLOOCTA[D]FURAN-2-YL)-2-FURAMIDE]	–	–
–	CN1CCN(CC(=O)Nc2ccc3oc4c(c3c2)CCCCC4)CC1 [Example 44, 2-(4-METHYLPIPERAZIN-1-YL)-N-7,8,9,10-TETRAHYDRO-6H-BENZO[B]CYCLOHEPTA[D]FURAN-2-YLACETAMIDE]	–	IC50: 1000 to 3000 nM
–	CCOC(=O)Nc1ccc2oc3c(c2c1)CCCCC3 [Example 85, ETHYL 7,8,9,10-TETRAHYDRO-6H-BENZO[B]CYCLOHEPTA[D]FURAN-2-YLCARBAMATE]	40 to 60	–
–	Cc1cccc(C(=O)Nc2ccc3oc4c(c3c2)CCCCCC4)c1 [Example 69, N-(6,7,8,9,10,11-HEXAHYDROBENZO[B]CYCLOOCTA[D]FURAN-2-YL)-3-METHYLBENZAMIDE]	10 to 20	–
–	O=C(Nc1ccc2oc3c(c2c1)CCCCC3)c1ccc(C(F)(F)F)cc1 [Example 38, N-7,8,9,10-TETRAHYDRO-6H-BENZO[B]CYCLOHEPTA[D]FURAN-2-yl-4-(TRIFLUOROMETHYL)BENZAMIDE]	5 to 10	–
–	C[C@H](NC(=O)OCc1ccccc1)C(=O)Nc1ccc2oc3c(c2c1)CCCCC3 [Example 49, BENZYL [(1S)-1-METHYL-2-OXO-2-(7,8,9,10-TETRAHYDRO-6H-BENZO[B]CYCLOHEPTA[D]FURAN-2-YLAMINO)ETHYL]CARBAMATE]	30 to 40	–
7000 to 9000	O=C(Nc1ccc2oc3c(c2c1)CCCCCC3)N1CCOCC1 [Example 86, N-(6,7,8,9,10,11-HEXAHYDROBENZO[B]CYCLOOCTA[D]FURAN-2-YL)MORPHOLINE-4-CARBOXAMIDE]	–	–
600 to 800	O=C(Nc1ccc2oc3c(c2c1)CCCCCC3)c1cccs1 [Example 67, N-(6,7,8,9,10,11-HEXAHYDROBENZO[B]CYCLOOCTA[D]FURAN-2-YL)THIOPHENE-2-CARBOXAMIDE]	–	–
–	CCCCC(=O)Nc1ccc2oc3c(c2c1)CCCCCC3 [Example 81, N-6,7,8,9,10,11-HEXAHYDROBENZO[B]CYCLOOCTA[D]FURAN-2-YLPENTANAMIDE]	–	inhibition at 30 µM: 10 to 30%
–	O=C(Cc1cccs1)Nc1ccc2oc3c(c2c1)CCCCC3 [Example 37, N-(7,8,9,10-TETRAHYDRO-6H-BENZO[B]CYCLOHEPTA[D]FURAN-2-YL)-2-THIEN-2-YLACETAMIDE]	–	inhibition at 30 µM: 20 to 40%
6000 to 9000	CCCCCC(=O)Nc1ccc2oc3c(c2c1)CCCCC3 [Example 35, N-(7,8,9,10-TETRAHYDRO-6H-BENZO[B]CYCLOHEPTA[D]FURAN-2-YL)HEXANAMIDE]	–	–
1000 to 3000	CCCCCC(=O)Nc1ccc2oc3c(c2c1)CCCC3 [Example 22, N-(6,7,8,9-TETRAHYDRODIBENZO[B,D]FURAN-2-YL)HEXANAMIDE]	–	–
–	O=C(CCl)Nc1ccc2oc3c(c2c1)CCCCCC3 [Example 79, 2-CHLORO-N-6,7,8,9,10,11-HEXAHYDROBENZO[B]CYCLOOCTA[D]FURAN-2-YLACETAMIDE]	–	IC50: 200 to 400 nM

IC50 [1] [nM]	Structure (SMILES)	inhibition at 30 µM [2] [%]	further results
–	O=C(Nc1ccc2oc3c(c2c1)CCCCC3)[C@@H]1CCCN1 [Example 57, N-7,8,9,10-TETRAHYDRO-6H-BENZO[B]CYCLOHEPTA[D]FURAN-2-YL-L-PROLINAMIDE]	20 to 30	–
300 to 600	C[C@H](NC(=O)OC(C)(C)C)C(=O)Nc1ccc2oc3c(c2c1)CCCCC3 [Example 56, TERT-BUTYL [(1S)-1-METHYL-2-OXO-2-(7,8,9,10-TETRAHYDRO-6H-BENZO[B]CYCLOHEPTA[D]FURAN-2-YLAMINO)ETHYL]CARBAMATE]	–	–
–	O=C(Cc1ccccc1)Nc1ccc2oc3c(c2c1)CCCCCC3 [Example 75, N-(6,7,8,9,10,11-HEXAHYDROBENZO[B]CYCLOOCTA[D]FURAN-2-YL)-2-PHENYLACETAMIDE]	–	inhibition at 30 µM: 30 to 40%
2000 to 3000	CC(C)(C)c1ccc(C(=O)Nc2ccc3oc4c(c3c2)CCCCC4)cc1 [Example 33, 4-TERT-BUTYL-N-(7,8,9,10-TETRAHYDRO-6H-BENZO[B]CYCLOHEPTA[D]FURAN-2-YL)BENZAMIDE]	–	–
–	O=C(CO)Nc1ccc2oc3c(c2c1)CCCCCC3 [Example 80, N-6,7,8,9,10,11-HEXAHYDROBENZO[B]CYCLOOCTA[D]FURAN-2-YL-2-HYDROXYACETAMIDE]	30 to 50	–
–	O=C(CCl)Nc1ccc2oc3c(c2c1)CCCCC3 [Example 39, 2-CHLORO-N-7,8,9,10-TETRAHYDRO-6H-BENZO[B]CYCLOHEPTA[D]FURAN-2-YLACETAMIDE]	–	inhibition at 30 µM: 15 to 35%
–	O=C(CN1CCC2(CC1)OCCO2)Nc1ccc2oc3c(c2c1)CCCCC3 [Example 43, 2-(1,4-DIOXA-8-AZASPIRO[4.5]DEC-8-YL)-N-7,8,9,10-TETRAHYDRO-6H-BENZO[b]CYCLOHEPTA[D]FURAN-2-YLACETAMIDE]	–	IC50: 1000 to 3000 nM
–	O=C(Nc1ccc2oc3c(c2c1)CCCC3)c1ccc(F)cc1 [Example 19, 4-FLUORO-N-(6,7,8,9-TETRAHYDRODIBENZO[B,D]FURAN-2-YL)BENZAMIDE]	25 to 35	–
3000 to 5000	CCCCC(=O)Nc1ccc2oc3c(c2c1)CCCCC3 [Example 31, N-(7,8,9,10-TETRAHYDRO-6H-BENZO[B]CYCLOHEPTA[d]FURAN-2-YL)PENTANAMIDE]	–	–
1300 to 2500	CC(=O)N1CCC[C@H]1C(=O)Nc1ccc2oc3c(c2c1)CCCCC3 [Example 60, 1-ACETYL-N-7,8,9,10-TETRAHYDRO-6H-BENZO[B]CYCLOHEPTA[D]FURAN-2-YL-L-PROLINAMIDE]	–	–
–	CN(C)C(=O)Nc1ccc2oc3c(c2c1)CCCCCC3 [Example 87, N′-(6,7,8,9,10,11-HEXAHYDROBENZO[B]CYCLOOCTA[D]FURAN-2-YL)-N,N-DIMETHYLUREA]	25 to 35	–
–	CC(C)OC(=O)Nc1ccc2oc3c(c2c1)CCCCCC3 [Example 88, ISOPROPYL 6,7,8,9,10,11-HEXAHYDROBENZO[B]CYCLOOCTA[D]FURAN-2-YLCARBAMATE]	20 to 30	–
–	CC(C)(C)OC(=O)NCC(=O)Nc1ccc2oc3c(c2c1)CCCCC3 [Example 51, TERT-BUTYL [2-OXO-2-(7,8,9,10-TETRAHYDRO-6H-BENZO[B]CYCLOHEPTA[D]FURAN-2-YLAMINO)ETHYL]CARBAMATE]	25 to 40	–
–	CN(CCO)CC(=O)Nc1ccc2oc3c(c2c1)CCCCC3 [Example 47, N^2-(2-HYDROXYETHYL)-N^2-METHYL-N′-7,8,9,10-TETRAHYDRO-6H-BENZO[B]CYCLOHEPTA[D]FURAN-2-YLGLYCINAMIDE]	–	inhibition at 30 µM: 10%
3000 to 5000	O=C(CCc1ccccc1)Nc1ccc2oc3c(c2c1)CCCCC3 [Example 36, 3-PHENYL-N-(7,8,9,10-TETRAHYDRO-6H-BENZO[B]CYCLOHEPTA[D]FURAN-2-YL)PROPANAMIDE]	–	–
800 to 2200	O=C(CCc1ccccc1)Nc1ccc2oc3c(c2c1)CCCCCC3 [Example 72, N-(6,7,8,9,10,11-HEXAHYDROBENZO[B]CYCLOOCTA[D]FURAN-2-YL)-3-PHENYLPROPANAMIDE]	–	–
500 to 800	CCC(=O)Nc1ccc2oc3c(c2c1)CCCCC3 [Example 34, N-(7,8,9,10-TETRAHYDRO-6H-BENZO[B]CYCLOHEPTA[D]FURAN-2-YL)PROPANAMIDE]	–	–
–	CN(CCc1ccccn1)CC(=O)Nc1ccc2oc3c(c2c1)CCCCC3 [Example 42, N^2-METHYL-N^2-(2-PYRIDIN-2-YLETHYL)-N^1-7,8,9,10-TETRAHYDRO-6H-BENZO[B]CYCLOHEPTA[D]FURAN-2-YLGLYCINAMIDE]	–	inhibition at 30 µM: 30 to 40%
–	O=C(Nc1ccc2oc3c(c2c1)CCCC3)c1ccc(Cl)cc1 [Example 17, 4-CHLORO-N-(6,7,8,9-TETRAHYDRO-DIBENZOFURAN-2-YL)-BENZAMIDE]	25 to 30	–
